The values below are quoted from earlier work in patent US20080113973A1, “Compositions and methods involving the combination of a thromboxane A2 receptor antagonist and an inhibitor of cyclooxygenase-2” (B.M.R.A. Corporation B.V., priority 2002, published 2008).

On to `CS(=O)(=O)c1ccc(C2=C(c3ccccc3)C(=O)OC2)cc1` [Rofecoxib], for which, for the setting “after oral administration”, the “Time of peak plasma concentrations” value was 2 to 3 h. Where the note is “in vivo”, the half life result is reported as “about 17 hours”.
